Laboratory results published in US12312370B2, “Immunoproteasome inhibitors” (Principia Biopharma Inc., priority 2017, dated 2025).

Key:
[1] = biological target: immunoproteasome LMP7/B5i subunit (Homo sapiens, UniProt P28062); assay: Caliper-based proteasome enzymatic activity assay, LMP7; assay type: biochemical; conditions: human recombinant immunoproteasome 0.3 nM, FAM-labeled peptide substrate 1 μM, rt 3 h; read-out: LMP7 subunit IC50
[2] = biological target: constitutive proteasome β5c unit (Homo sapiens, UniProt P28074); assay: Caliper-based proteasome enzymatic activity assay, β5c; assay type: biochemical; conditions: human recombinant constitutive proteasome 0.3 nM, FAM-labeled peptide substrate 1 μM, rt 3 h; read-out: β5c subunit IC50

| IC50 [1] [nM] | IC50 [2] [nM] | SMILES |
| --- | --- | --- |
| 6.6 | 14.8 | CC(C)C=C(C#N)C(=O)NCCCC[C@H](NC(=O)[C@@H](NC(=O)C(C)C)[C@@H](C)O)C(=O)N[C@@H](Cc1ccccc1)B(O)O [Example 10, ((R)-1-((S)-6-(2-cyano-4-methylpent-2-enamido)-2-((2S,3R)-3-hydroxy-2-isobutyramidobutanamido)hexanamido)-2-phenylethyl)boronic acid] |
| 5.3 | 2780 | CC(C)(C=C(C#N)C(=O)N1CCC[C@H](OC(=O)N[C@@H](Cc2ccccc2)B(O)O)C1)N1CCN(C2COC2)CC1 [Example 79] |
| 0.9 | 3280 | CC(C)(C=C(C#N)C(=O)N1C2CCC1(COC(=O)N[C@@H](CCc1ccccc1)B(O)O)CC2)N1CCC(F)(F)C1 [Example 77, (R)-(1-((((7-(2-cyano-4-(3,3-difluoropyrrolidin-1-yl)-4-methylpent-2-enoyl)-7-azabicyclo[2.2.1]heptan-1-yl)methoxy)carbonyl)amino)-3-phenylpropyl)boronic acid] |
| 646 | > 5000 | CC(C)(C=C(C#N)C(=O)N1CCC[C@@](C)(OC(=O)N[C@@H](Cc2ccccc2)B(O)O)C1)N1CCC(F)(F)C1 (single isomer, unassigned) [Example 93] |
| 4.3 | > 5000 | CC(C)(C=C(C#N)C(=O)N1CCC[C@H](OC(=O)N[C@@H](CC2=CCCC2)B(O)O)C1)N1CCC(F)(F)C1 [Example 117, ((R)-1-(((((S)-1-(2-cyano-4-(3,3-difluoropyrrolidin-1-yl)-4-methylpent-2-enoyl)piperidin-3-yl)oxy)carbonyl)amino)-2-(cyclopent-1-en-1-yl)ethyl)boronic acid] |
| 2.3 | 520 | CC(C)(C=C(C#N)C(=O)N1C[C@@H](F)[C@H](OC(=O)N[C@@H](Cc2ccccc2)B(O)O)C1)N1CCC(F)(F)C1 [Example 113, ((R)-1-(((((3R,4R)-1-(2-cyano-4-(3,3-difluoropyrrolidin-1-yl)-4-methylpent-2-enoyl)-4-fluoropyrrolidin-3-yl)oxy)carbonyl)amino)-2-phenylethyl)boronic acid] |
| 528 | > 5000 | C=CC(=O)N1C2CCC1(COC(=O)N[C@@H](CCc1ccccc1)B(O)O)CC2 [Example 71, (R)-(1-((((7-acryloyl-7-azabicyclo[2.2.1]heptan-1-yl)methoxy)carbonyl)amino)-3-phenylpropyl)boronic acid] |
| 2.6 | 1480 | C[C@@H]1CN(C(C)(C)C=C(C#N)C(=O)N2CCCC[C@@H](OC(=O)N[C@@H](Cc3ccccc3)B(O)O)C2)CCO1 [Example 131, ((R)-1-(((((R)-1-(2-cyano-4-methyl-4-((R)-2-methylmorpholino)pent-2-enoyl)azepan-3-yl)oxy)carbonyl)amino)-2-phenylethyl)boronic acid] |
| 1.3 | 753 | CC(C)(C=C(C#N)C(=O)N1C2CCC1(COC(=O)N[C@@H](Cc1ccccc1)B(O)O)CC2)N1CCOC2(CC2)C1 [Example 116, (R)-(1-((((7-(2-cyano-4-methyl-4-(4-oxa-7-azaspiro[2.5]octan-7-yl)pent-2-enoyl)-7-azabicyclo[2.2.1]heptan-1-yl)methoxy)carbonyl)amino)-2-phenylethyl)boronic acid] |
| 7.3 | 10 | CC#CC(=O)N(C)c1cccc(C[C@H](NC(=O)c2cc(Cl)ccc2Cl)C(=O)N[C@@H](Cc2ccccc2)B(O)O)c1 [Example 18, ((R)-1-((S)-2-(2,5-dichlorobenzamido)-3-(3-(N-methylbut-2-ynamido)phenyl)propanamido)-2-phenylethyl)boronic acid] |
| 256 | 1430 | C=CC(=O)N1CC[C@H]1COC(=O)N[C@@H](Cc1ccccc1)B(O)O [Example 51, ((R)-1-(((((S)-1-acryloylazetidin-2-yl)methoxy)carbonyl)amino)-2-phenylethyl)boronic acid] |
| 11.6 | > 5000 | COC(=O)N1CCN(C(C)(C)C=C(C#N)C(=O)N2CCC[C@H](OC(=O)N[C@@H](CC3=CCCC3)B(O)O)C2)CC1 [Example 120, ((R)-1-(((((S)-1-(2-cyano-4-(4-(methoxycarbonyl)piperazin-1-yl)-4-methylpent-2-enoyl)piperidin-3-yl)oxy)carbonyl)amino)-2-(cyclopent-1-en-1-yl)ethyl)boronic acid] |
| 26.1 | 3370 | CC1(C)CCN(C(C)(C)C=C(C#N)C(=O)N2CCC[C@H](OC(=O)N[C@@H](Cc3ccc(C(F)(F)F)cc3)B(O)O)C2)C1 [Example 69, ((R)-1-(((((S)-1-(2-cyano-4-(3,3-dimethylpyrrolidin-1-yl)-4-methylpent-2-enoyl)piperidin-3-yl)oxy)carbonyl)amino)-2-(4-(trifluoromethyl)phenyl)ethyl)boronic acid] |
| 18.2 | 3320 | C=CC(=O)N1C[C@@H](F)[C@H](OC(=O)N[C@@H](Cc2ccc(F)cc2)B(O)O)C1 [Example 135, ((R)-1-(((((3R,4R)-1-acryloyl-4-fluoropyrrolidin-3-yl)oxy)carbonyl)amino)-2-(4-fluorophenyl)ethyl)boronic acid] |
| 8.7 | 1620 | COC(=O)N1CCN(C(C)(C)C=C(C#N)C(=O)N2CC[C@H](COC(=O)N[C@@H](Cc3ccccc3)B(O)O)C2)CC1 [Example 96, ((R)-1-(((((S)-1-(2-cyano-4-(4-(methoxycarbonyl)piperazin-1-yl)-4-methylpent-2-enoyl)pyrrolidin-3-yl)methoxy)carbonyl)amino)-2-phenylethyl)boronic acid] |
| 11 | 186 | CC(C)(C=C(C#N)C(=O)N1CCO[C@@H](CC(=O)N[C@@H](Cc2ccccc2)B(O)O)C1)N1CCC(F)(F)C1 [Example 61, ((R)-1-(2-((S)-4-(2-cyano-4-(3,3-difluoropyrrolidin-1-yl)-4-methylpent-2-enoyl)morpholin-2-yl)acetamido)-2-phenylethyl)boronic acid] |
| 7.5 | 418 | C=CC(=O)N1CCC[C@H](OC(=O)N[C@@H](Cc2coc3ccccc23)B(O)O)C1 [Example 65, ((R)-1-(((((S)-1-acryloylpiperidin-3-yl)oxy)carbonyl)amino)-2-(benzofuran-3-yl)ethyl)boronic acid] |
| 1 | 685 | CC1(C)CN(C(C)(C)C=C(C#N)C(=O)N2C3CCC2(COC(=O)N[C@@H](Cc2ccccc2)B(O)O)CC3)CCO1 [Example 119, (R)-(1-((((7-(2-cyano-4-(2,2-dimethylmorpholino)-4-methylpent-2-enoyl)-7-azabicyclo[2.2.1]heptan-1-yl)methoxy)carbonyl)amino)-2-phenylethyl)boronic acid] |
| 3.2 | 1590 | CC(C)(C=C(C#N)C(=O)N1CC[C@@H](OC(=O)N[C@@H](Cc2ccccc2)B(O)O)C1)N1CCC(F)(F)C1 [Example 90, ((R)-1-(((((R)-1-(2-cyano-4-(3,3-difluoropyrrolidin-1-yl)-4-methylpent-2-enoyl)pyrrolidin-3-yl)oxy)carbonyl)amino)-2-phenylethyl)boronic acid] |

| SMILES | IC50 [1] [nM] | IC50 [2] [nM] |
| --- | --- | --- |
| CC(C)(C=C(C#N)C(=O)N1CCC[C@H](OC(=O)N[C@@H](Cc2ccccc2)B(O)O)C1)N1CCC(F)(F)C1 [Example 60, ((R)-1-(((((S)-1-(2-cyano-4-(3,3-difluoropyrrolidin-1-yl)-4-methylpent-2-enoyl)piperidin-3-yl)oxy)carbonyl)amino)-2-phenylethyl)boronic acid] | 1.4 | 463 |
